Test results: patent US9993494B2, “Compositions and methods for treating fibrotic disease” (eFFECTOR Therapeutics, Inc., priority 2014, dated 2018)

System: normal human lung fibroblasts
Test: Ribosomal profiling: translational efficiency in TGFβ-treated fibroblasts
Assay type: cell-based
Conditions: TGFβ-treated fibroblasts
Description: Ribosomal profiling allows for measurement of changes in transcription and translation on a genome-wide basis accompanying TGFβ-dependent transformation of fibroblasts to myofibroblasts. Ribosomal profiles of the TGFβ-treated fibroblasts from Example 1 (about 6×10^6 cells/10 cm plate) were prepared and analyzed for changes in translational efficiencies with respect to potential disease-associated cellular changes accompanying this TGFβ-induced transformation.
Briefly, cells were washed with cold PBS supplemented with cycloheximide and lysed with 1× mammalian cell lysis buffer for 10 minutes on ice. Lysates were clarified by centrifugation for 10 minutes at 14,000 rpm and supernatants were collected. Cell lysates were processed to generate ribosomal protected fragments and total mRNA according to the instructions included with the ARTseq Ribosome Profiling Kit (Illumina, San Diego, Calif.). Sequencing of total RNA (RNA) and of ribosome-protected fragments of RNA (RPF) was carried out using RNA-Seq methodology according to the manufacturer's instructions (Illumina). To analyze the ribosomal profiles, RNA-Seq reads were processed with tools from the FASTX-Toolkit (fastq_quality_trimmer, fastx_clipper and fastx_trimmer). Unprocessed and processed reads were evaluated for a variety of quality measures using FastQC, and processed reads were mapped to the human genome using TopHat (see, e.g., Trapnell et al., Bioinformatics 25:1105, 2009). Gene-by-gene assessment of the number of fragments strictly and uniquely mapping to the coding region of each gene was conducted using HTSeq-count, a component of the HTSeq package. […] Genes with low counts in either RPF or RNA were excluded from differential analyses. Pathway and network analyses of differential data were conducted using Ingenuity Pathway Analysis (IPA).

CC(C)n1nc(-c2cc3cc(O)ccc3[nH]2)c2c(N)ncnc21 [PP242]
+ (+ = 0.9 to 1.5): renormalizing the translational profile of EIF4B (ENSG00000063046) | renormalizing the translational profile of RPL18 (ENSG00000063177) | renormalizing the translational profile of ASPM (ENSG00000066279) | renormalizing the translational profile of RPL31 (ENSG00000071082) | renormalizing the translational profile of P2RX7 (ENSG00000089041) | renormalizing the translational profile of EIF3E (ENSG00000104408) | renormalizing the translational profile of GLTSCR2 (ENSG00000105373) | renormalizing the translational profile of RAB3D (ENSG00000105514) | renormalizing the translational profile of RPL18A (ENSG00000105640) | renormalizing the translational profile of GLCCI1 (ENSG00000106415) | renormalizing the translational profile of GAPDH (ENSG00000111640) | renormalizing the translational profile of IFIH1 (ENSG00000115267) | renormalizing the translational profile of RPL5 (ENSG00000122406)
− (− = <0.9): renormalizing the translational profile of DNASE1L1 (ENSG00000013563) | renormalizing the translational profile of ADAMTS6 (ENSG00000049192) | renormalizing the translational profile of LETMD1 (ENSG00000050426) | renormalizing the translational profile of PLEKHA5 (ENSG00000052126) | renormalizing the translational profile of HIPK2 (ENSG00000064393) | renormalizing the translational profile of RASSF1 (ENSG00000068028) | renormalizing the translational profile of PABPC1 (ENSG00000070756) | renormalizing the translational profile of PLD1 (ENSG00000075651) | renormalizing the translational profile of EDN1 (ENSG00000078401) | renormalizing the translational profile of AURKA (ENSG00000087586) | renormalizing the translational profile of EPB41L1 (ENSG00000088367) | renormalizing the translational profile of RPL6 (ENSG00000089009) | renormalizing the translational profile of RPLP0 (ENSG00000089157) | renormalizing the translational profile of IGBP1 (ENSG00000089289) | renormalizing the translational profile of IRAK3 (ENSG00000090376) | renormalizing the translational profile of PABPC4 (ENSG00000090621) | renormalizing the translational profile of ACOT7 (ENSG00000097021) | renormalizing the translational profile of ATP5D (ENSG00000099624) | renormalizing the translational profile of LGALS1 (ENSG00000100097) | renormalizing the translational profile of EIF3L (ENSG00000100129) | renormalizing the translational profile of RPL3 (ENSG00000100316) | renormalizing the translational profile of CEP192 (ENSG00000101639) | renormalizing the translational profile of AMMECR1 (ENSG00000101935) | renormalizing the translational profile of PLP2 (ENSG00000102007) | renormalizing the translational profile of EEF1D (ENSG00000104529) | renormalizing the translational profile of C19orf53 (ENSG00000104979) | renormalizing the translational profile of COMP (ENSG00000105664) | renormalizing the translational profile of CORO2A (ENSG00000106789) | renormalizing the translational profile of GDF10 (ENSG00000107623) | renormalizing the translational profile of RPL28 (ENSG00000108107) | renormalizing the translational profile of RPL19 (ENSG00000108298) | renormalizing the translational profile of RASD1 (ENSG00000108551) | renormalizing the translational profile of NAT9 (ENSG00000109065) | renormalizing the translational profile of RPL34 (ENSG00000109475) | renormalizing the translational profile of CRYAB (ENSG00000109846) | renormalizing the translational profile of C12orf57 (ENSG00000111678) | renormalizing the translational profile of MDFI (ENSG00000112559) | renormalizing the translational profile of HBEGF (ENSG00000113070) | renormalizing the translational profile of RPL24 (ENSG00000114391) | renormalizing the translational profile of EEF1B2 (ENSG00000114942) | renormalizing the translational profile of DPH5 (ENSG00000117543) | renormalizing the translational profile of PPL (ENSG00000118898) | renormalizing the translational profile of PLEKHG1 (ENSG00000120278) | renormalizing the translational profile of LIAS (ENSG00000121897) | renormalizing the translational profile of GPSM2 (ENSG00000121957) | renormalizing the translational profile of RPL21 (ENSG00000122026) | renormalizing the translational profile of INHBA (ENSG00000122641) | renormalizing the translational profile of CIT (ENSG00000122966) | renormalizing the translational profile of RPL23 (ENSG00000125691) | renormalizing the translational profile of LAMP5 (ENSG00000125869) | renormalizing the translational profile of NECAB3 (ENSG00000125967)
+++ (+++ = >2.0): renormalizing the translational profile of FMO2 (ENSG00000094963)
